Measured values from patent EP2404925A1, “New all trans platinum (IV) complexes, their preparation and their use as antitumor agents” (Universidad Autónoma de Madrid, priority 2010, dated 2012).

Key:
[1] = Toxicity (body weight loss, drug deaths) in the MX1 tumor model study; type: in vivo, SCID mice
Method: (§1) 7 to 8 weeks-old female SCID mice, obtained from Charles River (L'Arbresle, Lyon , France) were acclimated for at least 1 week previous experiment.
(§2) When ΔT/ΔC values are negative, the percentage of regression is evaluated. A Partial regression (PR) is defined as a decrease in tumor volume greater than or equal to 50% of the tumor volume at start of treatment. A Complete regression (CR) is defined as a decrease in tumor volume below the limit of palpation (T=10mm^3). At the end of the study, the number of tumor free survivor (TFS) which correspond to mice without any detectable tumor is determined. Both drug-related deaths and maximum percent relative mean net body weight loss are also determined. A body weight loss (mean of group) of greater than 15% for more than 3 consecutive days or 20% weight loss for one day or 10% drug deaths are considered to indicate an excessively toxic dosage.

CCRF-CEM = test: In vitro antiproliferative assay (14C-thymidine uptake), CEM cells; type: cell-based, human; settings: 72 h incubation, then 14C-thymidine uptake recorded 24 h later
Method: (§3) • CCRF-CEM is a human T-cell leukemia cell line (DSMZ ref ACC 240), established in 1964 from peripheral blood of young child bearing a terminal-stage ALL (Foley et al., Cancer 18: 522-529 (1965)). • NCI-H460 is a human epidermoïd lung tumour cell line, obtained from the NCI (NCI-Frederick. Tumor Bank). • MX1 is a human mammary carcinoma tumour, harbouring BRCA1 mutation, obtained from NCI (NCI-Frederick. Tumor Bank).
(§4) Tumour cells were grown in appropriate culture medium, either RPMI-1640 or DMEM, complemented with 10% calf-fetal serum and antibiotics.
(§5) Cell proliferation was evaluated by ^14C-thymidine uptake in DNA. Exponentially growing cells - from 5.10^3 to 10^4 per well in 180 µL culture medium - were introduced in a 96-wells microtitration Cytostar-T apparatus (GE Healthcare Bio-Sciences, Uppsala, Sweden). After 4 hours pre-incubation under CO2 atmosphere at 37°C, compounds were added in 10 µL volume. After incubation for an additional 72 hours period, 0.1 µCi ^14C-thymidine was added in each well, C^14 -thymidine uptake was recorded 24 hours later on a scintillation counter (Perkin-Elmer Life Sciences, Boston, MA, USA). IC50, defined as the dose which inhibits 50% of cell proliferation, were thus determined.

NCI-H460 = test: In vitro antiproliferative assay (14C-thymidine uptake), H460 cells; type: cell-based, human; settings: 72 h incubation, then 14C-thymidine uptake recorded 24 h later
Method: as §3, §4, §5

MX1 tumor = test: In vivo antitumor evaluation in MX1 tumor model; parameters: species or system SCID mice; settings: for SRI activity rating: day 10 to day 15 post tumor implantation
Description: as §3, §1
Animals, placed under normal light cycle, had then ad libitum access to food and water. MX1 cells, 10^7 cells per mouse initially grown in RPMI medium supplemented with 10% foetal-calf serum and antibiotics, were subcutaneously implanted in mice. When […] tumour volume was reached, fragments (2-3 mm diameter) were cut, placed in phosphate buffer (PBS), bilaterally implanted and further passaged in mice until tumour growth rate is stable, before starting the experiment. Tumors were measured with a caliper twice weekly until the tumor reached 2000 mm^3 or until the animal died (which ever come first). Tumor volumes were estimated from 2 dimensional measurements: Volume (in mm^3) = (a x b^2)/2, where a and b are the tumor length and width (mm) respectively. The variation from the baseline of the tumoral volume is calculated in the treated and control group. These values are used to calculate the median in the treated group (ΔT) and in the control group (ΔC). ΔT/ΔC, expressed as a percentage, is the ratio of median at a chosen day (the last day before it becomes necessary to sacrifice control mice owing to tumor size). ΔT/ΔC values can be translated into an activity rating, according to the Southern Research Institute (SRI) criteria:
as §2

[2] = i.v. daily during 5 days at 5 mg/kg
[3] = i.v. daily during 5 days at 10 mg/kg
[4] = i.v. daily during 5 days at 5 mg/kg (25 mg/kg total dose)
[5] = i.v. daily during 5 days at 10 mg/kg (50 mg/kg total dose)

Trans-trans-trans-{PtCl2(OH)2(isopropylamine)[(rac)-(exo)-norbornylamine]} [EXAMPLE 1]
toxicity for mice ([1]; 20 mg/kg): toxic
deaths ([1]; 20 mg/kg, deaths on days 17, 19, 20, 21 and 24 (2 mice)): 6/6
body weight loss [1, 2]: 4%
drug death [1, 2]: no drug death
body weight loss [1, 3]: 12%
drug death [1, 3]: no drug death
maximal tolerated dose ([1]; i.v., daily for 5 days schedule): 10 mg/kg
IC50 (CCRF-CEM): 53 nM
IC50 (NCI-H460): 532 nM
CR (complete regression) (MX1 tumor; [2]): 100%
ΔT/ΔC (MX1 tumor; [4]): < 0%
SRI activity rating (MX1 tumor; [4]): highly active
CR (complete regression) (MX1 tumor; [3]): 100%
TFS (tumor free survivor) at the end of the study (MX1 tumor; [3]): 2
ΔT/ΔC (MX1 tumor; [5]): < 0%
SRI activity rating (MX1 tumor; [5]): highly active

Trans-trans-trans-{PtCl2(OH)2(dimethylamine)[(exo)-2- norbornylamine]} [EXAMPLE 3]
IC50 (CCRF-CEM): 31 nM
IC50 (NCI-H460): 315 nM

Trans-trans-trans-{PtCl2(OH)2(isopropylamine)[(rac)-(endo)-norbornylamine]} [EXAMPLE 2]
IC50 (CCRF-CEM): 25 nM
IC50 (NCI-H460): 255 nM

O=C1[O][Pt]2([NH][C@@H]3CCCC[C@H]3[NH]2)[O]C1=O [oxaliplatin, reference compound]
IC50 (CCRF-CEM): 4000 nM
IC50 (NCI-H460): 2400 nM

N.N.[Cl][Pt][Cl] [cisplatin, reference compound]
IC50 (CCRF-CEM): 400 to 800 nM
IC50 (NCI-H460): 2600 to 4000 nM

CC(=O)[O][Pt]([NH2])([Cl])([Cl])([NH]C1CCCCC1)[O]C(C)=O [satraplatin, reference compound]
IC50 (CCRF-CEM): 400 nM
IC50 (NCI-H460): 190 nM
